One block for each compound: values may come before it.
What was measured:
in vitro = assay: in vitro
Method in brief: (§1)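 EpiAirway cultures treated 1 h with each lipid; PBS as negative control. LDH released apically and basolaterally measured colorimetrically at 490 nm after 30 min substrate incubation at room temperature. Cytotoxicity expressed as percent of 1% Triton X-100 lysis control, set to 100%.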

[1] = test system: human-derived tracheal/bronchial epithelial cells (EpiAirway Tissue Model); assay: in vitro
Method in brief: as §1

[2] = test system: human-derived tracheal/bronchial epithelial cells (EpiAirway Tissue Model); assay: TER recovery / TER time course; assay type: cell-based; details: for TER Recovery (ohms) 16 Hours / TER Recovery (ohms) 0 Hour: lipid 1000 μM in Buffer I; for TER Recovery (ohms) 16 Hours: 16 hours post-treatment; for TER Recovery (ohms) 0 Hour: zero hour post-treatment
Method: TER recovery was calculated as described in the above paragraph.
Reversibility is a critical factor in selecting epithelial cell permeabiling enhancers since the barrier function of the epithelial cells serves as the first line of defense against pathogens and the entrance of toxins into the body. The permeation enhancing lipids C16 PAF; C18 PAF; C16 Enantiomeric PAF; POVPC; C16-04: 1 PC and PGPC were incubated with a monolayer of human-derived tracheal/bronchial epithelial cells (EpiAirway™ Model System) and TER […] The lipid glucosyl sphingosine was also tested. Each permeation enhancing lipid (except PGPC) was applied at a concentration of 1000 μM for 15, 30 and 60 minutes. The permeation enhancing lipid PGPC and the lipid glucosyl sphingosine were applied at a concentration of 500 μM for 1, 3, 5, 30 and 60 minutes. TER measurements were taken immediately after each application to determine how quickly each lipid could reduce TER.
[…] […] PBS served as a negative control and Triton-X100™ served as a positive control.
To asses how quickly the cells recovered after application and removal of the permeation enhancing lipid PGPC and the lipid glucosyl sphingosine, TER measurements were taken at 1, 3, 5, 7, and 9 hours post-treamtnet for each of the prior mentioned timed treatments (i.e., 1, 3, 5, 15, 30 and 60 minutes). TER recovery measures the reversibility of the lipid mediated effect on an epithelia. […] Hyptonic PBS served as a negative control for TER reduction and TER recovery.

[3] = test system: human-derived tracheal/bronchial epithelial cells (EpiAirway Tissue Model); assay: FITC-Dextran permeation assay across epithelial cell monolayer; assay type: cell-based; details: for Mean % FD3 Permeation: FITC-dextran 3000 (Table 4); for permeation of FD3 relative to negative controls: text summary of Table 4
Method in brief: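 Formulations applied apically to EpiAirway tissue inserts, shaken ~100 rpm 1.5 hours at 37 °C, with FITC-dextran (3-500 kDa) added apically. Basolateral fluorescence read at 470 nm in triplicate; result expressed as percent of FITC-dextran crossing apical to basolateral.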

[4] = % Cytotoxicity, lipid 1000 μM in Buffer I, apical LDH release
[5] = % Cytotoxicity, lipid 1000 μM in Buffer II, apical LDH release
[6] = in the presence of FITC-Dextran FD3 (Table 6)
[7] = in the presence of FITC-Dextran FD10 (Table 6)
[8] = in the presence of FITC-Dextran FD40 (Table 6)
[9] = in the presence of FITC-Dextran FD70 (Table 6)
[10] = in the presence of FITC-Dextran FD500 (Table 6)
[11] = after 1, 3, 5, 15 and 30 minute treatments, lipids 500 μM, PN159 25 μM
[12] = after 60 minute treatment, lipids 500 μM, PN159 25 μM

SMILES: CCCCCCCCCCCCCCCCOC[C@@H](COP(=O)([O-])OCC[N+](C)(C)C)OC(C)=O [C16 Enantiomeric PAF, 3-O-Hexadecyl-2-Acetoyl-sn-Glycero-1-Phosphocholine]
cytotoxicity at 1 h, 1000 μM (in vitro; [4]): 34%
cytotoxicity at 1 h, 1000 μM (in vitro; [5]): 14%
% Relative Cytotoxic Effect (LDH) [1, 6]: 34%
% Relative Cytotoxic Effect (LDH) [1, 7]: 32%
% Relative Cytotoxic Effect (LDH) [1, 8]: 36%
% Relative Cytotoxic Effect (LDH) [1, 9]: 31%
% Relative Cytotoxic Effect (LDH) [1, 10]: 33%
Mean % Relative Cytotoxic Effect (LDH) ([1]; lipid 1000 μM (Table 4)): 35%
TER Recovery (ohms) 16 Hours [2]: 462 ohms
TER Recovery (ohms) 0 Hour [2]: 9 ohms
% FITC-Dextran Permeation FD10 ([3]; lipid 1000 μM): 4%
% FITC-Dextran Permeation FD40 ([3]; lipid 1000 μM): 2%
% FITC-Dextran Permeation FD70 ([3]; lipid 1000 μM): 1%
% FITC-Dextran Permeation FD500 ([3]; lipid 1000 μM): 0%
% FITC-Dextran Permeation FD3 ([3]; lipid 1000 μM (Table 5)): 20%
% FD3 Permeation ([3]; lipid 1000 μM in Buffer I): 46%
% FD3 Permeation ([3]; lipid 1000 μM in Buffer II): 23%
Mean % FD3 Permeation ([3]; lipid 1000 μM): 11%
permeation of FD3 relative to negative controls [3]: enhanced the permeation of FD3 above that of the negative controls

SMILES: CCCCCCCCCCCCCCCCOC[C@H](COP(=O)([O-])OCC[N+](C)(C)C)OC(C)=O [C16-02:0 PC(C16 PAF), 1-O-Hexadecyl-2-Acetoyl-sn-Glycero-3-Phosphocholine]
cytotoxicity at 1 h, 1000 μM (in vitro; [4]): 43%
cytotoxicity at 1 h, 1000 μM (in vitro; [5]): 13%
cytotoxicity at 1 h (in vitro; % Cytotoxicity, lipid / PYY 10 mg/mL): 23%
% Relative Cytotoxic Effect (LDH) [1, 6]: 32%
% Relative Cytotoxic Effect (LDH) [1, 7]: 35%
% Relative Cytotoxic Effect (LDH) [1, 8]: 31%
% Relative Cytotoxic Effect (LDH) [1, 9]: 35%
% Relative Cytotoxic Effect (LDH) [1, 10]: 26%
Mean % Relative Cytotoxic Effect (LDH) ([1]; lipid 500 μM (Table 4)): 20%
Mean % Relative Cytotoxic Effect (LDH) ([1]; lipid 1000 μM (Table 4)): 32%
TER Recovery (ohms) 16 Hours [2]: 650 ohms
TER Recovery (ohms) 0 Hour [2]: 9 ohms
Mean % FD3 Permeation ([3]; lipid 500 μM): 5%
% FITC-Dextran Permeation FD10 ([3]; lipid 1000 μM): 6%
% FITC-Dextran Permeation FD40 ([3]; lipid 1000 μM): 2%
% FITC-Dextran Permeation FD70 ([3]; lipid 1000 μM): 2%
% FITC-Dextran Permeation FD500 ([3]; lipid 1000 μM): 0%
% FITC-Dextran Permeation FD3 ([3]; lipid 1000 μM (Table 5)): 22%
% FD3 Permeation ([3]; lipid 1000 μM in Buffer I): 41%
% FD3 Permeation ([3]; lipid 1000 μM in Buffer II): 27%
Mean % FD3 Permeation ([3]; lipid 1000 μM): 14%
permeation of FD3 relative to negative controls [3]: enhanced the permeation of FD3 above that of the negative controls

SMILES: CCCCCCCCCCCCCCCCCCOC[C@H](COP(=O)([O-])OCC[N+](C)(C)C)OC(C)=O [C18-02:0 PC(C18 PAF), 1-O-Octadecyl-2-Acetoyl-sn-Glycero-3-Phosphocholine]
cytotoxicity at 1 h, 1000 μM (in vitro; human, % Cytotoxicity): 33%
Mean % Relative Cytotoxic Effect (LDH) ([1]; human, 1 h, 500 μM): 8%
% Cytotoxicity ([1]; human, 1 h, 1000 μM): 17%
Mean % Relative Cytotoxic Effect (LDH) ([1]; human, 1 h, 1000 μM): 20%
TER Recovery (ohms) 16 Hours [2]: 497 ohms
TER Recovery (ohms) 0 Hour [2]: 6 ohms
Mean % FD3 Permeation ([3]; lipid 500 μM): 2%
% FITC-Dextran Permeation FD10 ([3]; lipid 1000 μM): 8%
% FITC-Dextran Permeation FD40 ([3]; lipid 1000 μM): 3%
% FITC-Dextran Permeation FD70 ([3]; lipid 1000 μM): 2%
% FITC-Dextran Permeation FD500 ([3]; lipid 1000 μM): 0%
% FITC-Dextran Permeation FD3 ([3]; lipid 1000 μM (Table 5)): 24%
% FD3 Permeation ([3]; lipid 1000 μM in Buffer I): 42%
% FD3 Permeation ([3]; lipid 1000 μM in Buffer II): 27%
Mean % FD3 Permeation ([3]; lipid 1000 μM): 8%
permeation of FD3 relative to negative controls [3]: enhanced the permeation of FD3 above that of the negative controls

SMILES: C=CCC(=O)O[C@H](COCCCCCCCCCCCCCCCC)COP(=O)([O-])OCC[N+](C)(C)C [C16-04:1 PC]
Mean % Relative Cytotoxic Effect (LDH) ([1]; human, 1 h, 500 μM): 18%
Mean % Relative Cytotoxic Effect (LDH) ([1]; human, 1 h, 1000 μM): 27%
TER Recovery (ohms) 16 Hours [2]: 520 ohms
TER Recovery (ohms) 0 Hour [2]: 10 ohms
Mean % FD3 Permeation ([3]; lipid 500 μM): 6%
% FITC-Dextran Permeation FD10 ([3]; lipid 1000 μM): 8%
% FITC-Dextran Permeation FD40 ([3]; lipid 1000 μM): 3%
% FITC-Dextran Permeation FD70 ([3]; lipid 1000 μM): 0%
% FITC-Dextran Permeation FD500 ([3]; lipid 1000 μM): 0%
% FITC-Dextran Permeation FD3 ([3]; lipid 1000 μM (Table 5)): 25%
% FD3 Permeation ([3]; lipid 1000 μM in Buffer I): 44%
% FD3 Permeation ([3]; lipid 1000 μM in Buffer II): 8%
Mean % FD3 Permeation ([3]; lipid 1000 μM): 12%
permeation of FD3 relative to negative controls [3]: enhanced the permeation of FD3 above that of the negative controls

SMILES: CCCCCCCCCCCCCCCC(=O)OC[C@H](COP(=O)([O-])OCC[N+](C)(C)C)OC(=O)CCCC=O [POVPC, 1-Palmitoyl-2-(5′-oxo-Valeroyl)-sn-Glycero-3-Phosphocholine]
cytotoxicity at 1 h, 1000 μM (in vitro; [4]): 15%
cytotoxicity at 1 h, 1000 μM (in vitro; [5]): 15%
% Relative Cytotoxic Effect (LDH) [1, 6]: 19%
% Relative Cytotoxic Effect (LDH) [1, 7]: 11%
% Relative Cytotoxic Effect (LDH) [1, 8]: 13%
% Relative Cytotoxic Effect (LDH) [1, 9]: 13%
% Relative Cytotoxic Effect (LDH) [1, 10]: 12%
Cytotoxic Effect (LDH) 1 hr. Post-treatments ([1]; lipid 62.5 μM, percent of Triton-X100 LDH levels): 2%
Cytotoxic Effect (LDH) 1 hr. Post-treatments ([1]; lipid 125 μM, percent of Triton-X100 LDH levels): 2%
Cytotoxic Effect (LDH) 1 hr. Post-treatments ([1]; lipid 250 μM, percent of Triton-X100 LDH levels): 5%
Cytotoxic Effect (LDH) 1 hr. Post-treatments ([1]; lipid 500 μM, percent of Triton-X100 LDH levels): 11%
Mean % Relative Cytotoxic Effect (LDH) ([1]; lipid 1000 μM (Table 4)): 9%
LDH levels for each incubation time period ([1]; lipid 1000 μM, 15, 30 and 60 minute incubation): below 10%
Cytotoxic Effect (LDH) 1 hr. Post-treatments ([1]; lipid 1000 μM, percent of Triton-X100 LDH levels): 21%
TER Recovery (ohms) 16 Hours [2]: 508 ohms
TER Recovery (ohms) 0 Hour [2]: 71 ohms
permeation of FITC-dextran 3000 (FD3) over time ([3]; 1000 μM, 15, 30, 60 minutes): time-dependent permeation
% FITC-Dextran Permeation FD3 ([3]; lipid 500 μM (Table 5)): 2%
% FITC-Dextran Permeation FD10 ([3]; lipid 1000 μM): 3%
% FITC-Dextran Permeation FD40 ([3]; lipid 1000 μM): 1%
% FITC-Dextran Permeation FD70 ([3]; lipid 1000 μM): 0.3%
% FITC-Dextran Permeation FD500 ([3]; lipid 1000 μM): 0%
% FITC-Dextran Permeation FD3 ([3]; lipid 1000 μM (Table 5)): 10%
% FD3 Permeation ([3]; lipid 1000 μM in Buffer I): 53%
% FD3 Permeation ([3]; lipid 1000 μM in Buffer II): 9%
Mean % FD3 Permeation ([3]; lipid 1000 μM): 10%
permeation of FD3 relative to negative controls [3]: enhanced the permeation of FD3 above that of the negative controls

SMILES: CC(C)C[C@H](NC(=O)[C@H](C)NC(=O)[C@H](CCCCN)NC(=O)[C@H](CC(C)C)NC(=O)[C@H](C)NC(=O)[C@H](CC(C)C)NC(=O)[C@H](CCCCN)NC(=O)[C@H](CC(C)C)NC(=O)[C@H](C)NC(=O)[C@H](CC(C)C)NC(=O)[C@@H](N)CCCCN)C(=O)N[C@@H](CCCCN)C(=O)N[C@@H](C)C(=O)N[C@@H](C)C(=O)N[C@@H](CC(C)C)C(=O)N[C@@H](CCCCN)C(=O)N[C@@H](CC(C)C)C(=O)N[C@@H](C)C(N)=O [PN159, reference compound]
cytotoxicity at 1 hour, 25 μM (in vitro): 33%
time to full TER recovery (PBS control levels) [2, 11]: 2 h
time to full TER recovery (PBS control levels) [2, 12]: 9 h
time to TER reduction ([2]; lipids 500 μM, PN159 25 μM): 10 min
% FITC-Dextran Permeation FD10 ([3]; PN159 25 μM): 4%
% FITC-Dextran Permeation FD40 ([3]; PN159 25 μM): 2%
% FITC-Dextran Permeation FD3 ([3]; PN159 25 μM (Table 5)): 7%

LDH levels ([1]; human, 1 h): below 30%
SMILES: CCCCCCCCCCCCCCCC(=O)OC[C@H](COP(=O)([O-])OCC[N+](C)(C)C)OC(=O)CCCC(=O)O [PGPC, 1-Palmitoyl-2-Glutaroyl-sn-Glycero-3-Phosphocholine]
cytotoxicity at 1 h, 500 μM (in vitro; human, % Cytotoxicity): 2%
Cytotoxic Effect (LDH) 1 hr. Post-treatments ([1]; human, 1 h, 62.5 μM): 2%
Cytotoxic Effect (LDH) 1 hr. Post-treatments ([1]; human, 1 h, 125 μM): 2%
Cytotoxic Effect (LDH) 1 hr. Post-treatments ([1]; human, 1 h, 250 μM): 4%
Cytotoxic Effect (LDH) 1 hr. Post-treatments ([1]; human, 1 h, 500 μM): 13%
Cytotoxic Effect (LDH) 1 hr. Post-treatments ([1]; human, 1 h, 1000 μM): 21%
time to full TER recovery (PBS control levels) [2, 11]: fully recovered within one hour
time to full TER recovery (PBS control levels) [2, 12]: did not reach PBS TER control levels until three hours post-treatment
% FITC-Dextran Permeation FD3 ([3]; lipid 500 μM (Table 5)): 10%

— patent US20070077283A1, “METHOD OF ENHANCING TRANSMUCOSAL DELIVERY OF THERAPEUTIC COMPOUNDS” (Nastech Pharmaceutical Company Inc., priority 2005, published 2007)
